This note sets out measurements from ChEMBL document CHEMBL1152069, “Synthesis and biological properties of carboranylaziridines bearing cascade polyols” (Bioorg Med Chem Lett, 1996).

Series [1] is described as follows: Water solubility at 37 degree C. The conditions noted are these: buffer. In kind it is ADME.
The nature of series [2]: Compound was tested for growth Inhibition against human TIG-1-20 fibroblast cells. In kind it is functional, cell-based.
Series [3] has as its system B16. Description: Compound was tested for cytotoxic activity against […] melanoma cells. In kind it is functional, cell-based, Mus musculus.
In series [4] the test system is B16. Put plainly: Compound was tested for growth Inhibition against B16 melanoma cells. The series is classed as functional, cell-based, Mus musculus.

For `CC1CN1CC(O)CC1CC1COC(COC(CO)CO)COC(CO)CO` (centres undefined), the S in series [1] is listed as > 0.01 M,mol dme-3. In addition, the results for the IC50 in series [2] and in series [3] were 0.000068 M,mol dme-3 and 0.00005 M,mol dme-3, respectively.

Consider `CC1CN1CC(O)CC1CC1` (centres undefined), for which the S in series [1] is on record as < 0.001 M,mol dme-3. Further, the IC50 is 5.4e-6 M,mol dme-3 in series [4] and 0.000018 M,mol dme-3 in series [2].

Regarding `CC1CN1CC(O)CC1CC1COC(CO)CO` (centres undefined), in series [1], the S is given as 0.0081 M,mol dme-3. For the same compound, the IC50 was 0.000041 M,mol dme-3 in series [2] and 0.000029 M,mol dme-3 in series [3].
